This is an account of results in PMC7365090, “In crystallo-screening for discovery of human norovirus 3C-like protease inhibitors” (Journal of Structural Biology: X, 2020).

The assay concerns the target T1, SV3CP (Southampton norovirus 3CL^pro) (Southampton virus (serotype 3), UniProt Q04544).
T1 construct: gene ORF1; mature 3C-like protease (NS6) cut from the ORF1 non-structural polyprotein; purified as in Hussey et al. 2011; mass 19,290 Da (intact); dimer in asymmetric unit, putative crystallographic tetramer
As to the kind of experiment: chromogenic protease assay, […] nm. The format is biochemical.

One may read the pKi as −log10 of the Ki, conventionally taken in molar units.

pKi: −log10 of the molar value. Read-outs that look alike come from different tables or passages of the source.

T1 sequence (Q04544 1100-1280): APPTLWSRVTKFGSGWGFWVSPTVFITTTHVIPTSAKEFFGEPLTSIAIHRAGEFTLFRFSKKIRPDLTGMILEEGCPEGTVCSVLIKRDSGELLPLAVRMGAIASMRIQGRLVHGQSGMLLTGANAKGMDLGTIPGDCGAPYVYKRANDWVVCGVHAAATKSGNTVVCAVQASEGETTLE

For `Cc1ccc(CNc2cccc(C(=O)O)c2)s1` [J01], where the note is “read-out: Ki”, the pKi was 3.43.
In the case of `O=C(O)c1csc(-c2ccc(C(F)(F)F)cc2)n1` [J02], the pKi was 3.47.
